Experimental data taken from PubChem BioAssay AID298 (DTP/NCI, 2004).
Several values for one entry are separate records, joined by “and”; a condition that tells them apart may be missing. Equal values may be shown once. Results filed as inconclusive are left out.

Test system: MX-1 breast xenograft, intrarenal, nude mice, tumor weight
Assay: NCI In Vivo Anticancer Drug Screen. Data for tumor model Human Mammary Carcinoma MX-1 Xenograft (intrarenal inoculation) in NU/NU BALB/C (nude) mice
Settings: endpoint: mean tumor weight change, higher = larger tumour
Procedure, shortened: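 Efficacy in vivo: tumor measurement or survival of treated animals divided by that of vehicle-dosed controls.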

[1] = dose: 200.0 mg/kg/injection, schedule: Q04DX003 (ip), vehicle: saline with Tween-80

SMILES: COc1cc2c(cc1OC)-c1c3c(cc4c1[C@@H](C2)N(C)CC4)OCO3
- T/C (dose: 37.5 mg/kg/injection, schedule: Q04DX003 (ip), vehicle: distilled water + alcohol): 56 % of control
- T/C (dose: 75.0 mg/kg/injection, schedule: Q04DX003 (ip), vehicle: distilled water + alcohol): 55 % of control
- T/C (dose: 150.0 mg/kg/injection, schedule: Q04DX003 (ip), vehicle: distilled water + alcohol): 68 % of control

SMILES: c1ccc(P(CCNCCP(c2ccccc2)c2ccccc2)c2ccccc2)cc1
- T/C (dose: 100.0 mg/kg/injection, schedule: Q04DX003 (ip), vehicle: saline with Tween-80): 111 % of control
- T/C [1]: 106 % of control
- T/C (dose: 800.0 mg/kg/injection, schedule: Q04DX003 (ip), vehicle: saline with Tween-80): 81 % of control

SMILES: COC1C(CO)OC(n2c3c(Cl)cccc3c3c4c(c5c6cccc(Cl)c6[nH]c5c32)C(=O)NC4=O)C(O)C1O (stereo not given)
- T/C (dose: 100.0 mg/kg/injection, schedule: Q04DX003 (ip), vehicle: distilled water + Tween-80): 69 % of control
- T/C (dose: 200.0 mg/kg/injection, schedule: Q04DX003 (ip), vehicle: distilled water + Tween-80): 43 % of control
- T/C (dose: 400.0 mg/kg/injection, schedule: Q04DX003 (ip), vehicle: distilled water + Tween-80): 21 % of control
- T/C (dose: 800.0 mg/kg/injection, schedule: Q04DX003 (ip), vehicle: distilled water + Tween-80): 30 % of control

SMILES: CCCCCCCCCCCCN1C(C)=CS/C1=C\C=C\c1scc(C)[n+]1CCCCCCCCCCCC
- T/C (dose: 0.75 mg/kg/injection, schedule: Q04DX003 (ip), vehicle: saline with Tween-80): 91 % of control
- T/C (dose: 1.5 mg/kg/injection, schedule: Q04DX003 (ip), vehicle: saline with Tween-80): 89 % of control
- T/C (dose: 3.0 mg/kg/injection, schedule: Q04DX003 (ip), vehicle: saline with Tween-80): 28 % of control

SMILES: CNC(=O)OCc1nc(SC)n(C)c1COC(=O)NC
- T/C (dose: 28.75 mg/kg/injection, schedule: Q04DX003 (ip), vehicle: saline): -91 % of control
- T/C (dose: 57.5 mg/kg/injection, schedule: Q04DX003 (ip), vehicle: saline): -85 % of control
- T/C (dose: 115.0 mg/kg/injection, schedule: Q04DX003 (ip), vehicle: saline): -63 % of control

SMILES: COc1cc(NCc2ccc3nc(N)nc(N)c3c2C)cc(OC)c1OC
- T/C (dose: 15.0 mg/kg/injection, schedule: Q04DX003 (ip), vehicle: Klucel (hydroxypropylcellulose) (HPC)): 96 % of control and 101 % of control
- T/C (dose: 30.0 mg/kg/injection, schedule: Q04DX003 (ip), vehicle: Klucel (hydroxypropylcellulose) (HPC)): 81 % of control and 95 % of control
- T/C (dose: 120.0 mg/kg/injection, schedule: Q04DX003 (ip), vehicle: Klucel (hydroxypropylcellulose) (HPC)): 56 % of control and 71 % of control

SMILES: Cc1cc(O)c2c(c1O)C(=O)C13C(=C2O)C(=O)C2C(O)C1C1C(O)C3C(=O)C3=C(O)c4c(O)cc(C)c(O)c4C(=O)C321 (stereo not given)
- T/C (dose: 12.5 mg/kg/injection, schedule: Q04DX003 (ip), vehicle: saline with Tween-80): 107 % of control
- T/C (dose: 25.0 mg/kg/injection, schedule: Q04DX003 (ip), vehicle: saline with Tween-80): 76 % of control

SMILES: CNc1nc(N(C)C)nc(N(C)C)n1
- T/C (dose: 30.0 mg/kg/injection, schedule: Q01DX010 (sc), vehicle: water): 1 % of control
- T/C (dose: 60.0 mg/kg/injection, schedule: Q01DX010 (sc), vehicle: water): -31 % of control
- T/C (dose: 120.0 mg/kg/injection, schedule: Q01DX010 (sc), vehicle: water): -94 % of control

SMILES: O=C(O)CCCc1ccc(N(CCCl)CCCl)cc1
- T/C (dose: 12.0 mg/kg/injection, schedule: Q04DX003 (ip), vehicle: Klucel (hydroxypropylcellulose) (HPC)): 1 % of control and 4 % of control
- T/C (dose: 18.0 mg/kg/injection, schedule: Q04DX003 (ip), vehicle: Klucel (hydroxypropylcellulose) (HPC)): 4 % of control
- T/C (dose: 27.0 mg/kg/injection, schedule: Q04DX003 (ip), vehicle: Klucel (hydroxypropylcellulose) (HPC)): -55 % of control

SMILES: S=c1sc2ccccc2n1CN1CCOCC1
- T/C (dose: 75.0 mg/kg/injection, schedule: Q04DX003 (ip), vehicle: saline with Tween-80): 77 % of control and 84 % of control
- T/C (dose: 150.0 mg/kg/injection, schedule: Q04DX003 (ip), vehicle: saline with Tween-80): 110 % of control and 115 % of control
- T/C (dose: 300.0 mg/kg/injection, schedule: Q04DX003 (ip), vehicle: saline with Tween-80): 79 % of control and 90 % of control
- T/C (dose: 600.0 mg/kg/injection, schedule: Q04DX003 (ip), vehicle: saline with Tween-80): 67 % of control and 82 % of control

SMILES: c1ccc2c(c1)[As]=c1ccccc1=[As]2 (stereo not given)
- T/C (dose: 75.0 mg/kg/injection, schedule: Q04DX003 (sc), vehicle: saline): 108 % of control
- T/C (dose: 150.0 mg/kg/injection, schedule: Q04DX003 (sc), vehicle: saline): 87 % of control
- T/C (dose: 300.0 mg/kg/injection, schedule: Q04DX003 (sc), vehicle: saline): 99 % of control

SMILES: CC(CNC(=O)C12CC3CC(CC(C3)C1)C2)NC(=O)C12CC3CC(CC(C3)C1)C2 (stereo not given)
- T/C (dose: 75.0 mg/kg/injection, schedule: Q04DX003 (ip), vehicle: DMSO): 82 % of control
- T/C (dose: 150.0 mg/kg/injection, schedule: Q04DX003 (ip), vehicle: DMSO): 95 % of control
- T/C (dose: 300.0 mg/kg/injection, schedule: Q04DX003 (ip), vehicle: DMSO): 106 % of control
- T/C (dose: 600.0 mg/kg/injection, schedule: Q04DX003 (ip), vehicle: DMSO): 105 % of control

SMILES: C/C(=N\NC(=O)c1ccccc1O)c1cccc(/C(C)=N/NC(=O)c2ccccc2O)n1
- T/C (dose: 25.0 mg/kg/injection, schedule: Q04DX003 (ip), vehicle: saline): 109 % of control
- T/C (dose: 50.0 mg/kg/injection, schedule: Q04DX003 (ip), vehicle: saline): 77 % of control
- T/C (dose: 100.0 mg/kg/injection, schedule: Q04DX003 (ip), vehicle: saline): 100 % of control

SMILES: Nc1ccn([C@@H](C=O)O[C@@H](C=O)CO)c(=O)n1
- T/C (dose: 50.0 mg/kg/injection, schedule: Q04DX003 (sc), vehicle: saline): 70 % of control
- T/C (dose: 100.0 mg/kg/injection, schedule: Q04DX003 (sc), vehicle: saline): 14 % of control
- T/C (dose: 200.0 mg/kg/injection, schedule: Q04DX003 (sc), vehicle: saline): -85 % of control

SMILES: COc1ccc2oc3c(ccc[n+]3C)c(=O)c2c1
- T/C [1]: 116 % of control

SMILES: O=C1N[C@@H]2C(=C[C@H](O)[C@@H](O)[C@H]2O)c2cc3c(c(O)c21)OCO3
- T/C (dose: 1.25 mg/kg/injection, schedule: Q04DX003 (sc), vehicle: saline with Tween-80): 71 % of control

SMILES: COc1nc(C(Cl)(Cl)Cl)c(Cl)c(OC)c1Cl
- T/C (dose: 89.0 mg/kg/injection, schedule: Q04DX003 (oral), vehicle: Klucel (hydroxypropylcellulose) (HPC)): -100 % of control
- T/C (dose: 133.5 mg/kg/injection, schedule: Q04DX003 (oral), vehicle: Klucel (hydroxypropylcellulose) (HPC)): -100 % of control
- T/C (dose: 200.0 mg/kg/injection, schedule: Q04DX003 (oral), vehicle: Klucel (hydroxypropylcellulose) (HPC)): -100 % of control
- T/C (dose: 300.0 mg/kg/injection, schedule: Q04DX003 (oral), vehicle: Klucel (hydroxypropylcellulose) (HPC)): -100 % of control
- T/C (dose: 450.0 mg/kg/injection, schedule: Q04DX003 (oral), vehicle: Klucel (hydroxypropylcellulose) (HPC)): -100 % of control

SMILES: O=c1[nH]cnc2c1nnn2C1OC(CO)C(O)C1O (stereo not given)
- T/C (dose: 150.0 mg/kg/injection, schedule: Q04DX003 (ip), vehicle: saline): 18 % of control and 32 % of control
- T/C (dose: 150.0 mg/kg/injection, schedule: Q04DX003 (ip), vehicle: suspension in saline): 11 % of control and 24 % of control
- T/C (dose: 300.0 mg/kg/injection, schedule: Q04DX003 (ip), vehicle: saline): 17 % of control and 19 % of control
- T/C (dose: 300.0 mg/kg/injection, schedule: Q04DX003 (ip), vehicle: suspension in saline): 10 % of control and 20 % of control
- T/C (dose: 600.0 mg/kg/injection, schedule: Q04DX003 (ip), vehicle: saline): 8 % of control and 13 % of control
- T/C (dose: 600.0 mg/kg/injection, schedule: Q04DX003 (ip), vehicle: suspension in saline): 9 % of control and 13 % of control
- T/C (dose: 1200.0 mg/kg/injection, schedule: Q04DX003 (ip), vehicle: saline): 9 % of control and 11 % of control
- T/C (dose: 1200.0 mg/kg/injection, schedule: Q04DX003 (ip), vehicle: suspension in saline): 8 % of control and 12 % of control

SMILES: CCN(CC)CC(=O)O[C@]1(CC)C(=O)OCc2c1cc1n(c2=O)Cc2cc3ccccc3nc2-1
- T/C (dose: 2.0 mg/kg/injection, schedule: Q04DX003 (ip), vehicle: other): 35 % of control
- T/C (dose: 2.0 mg/kg/injection, schedule: Q04DX003 (ip), vehicle: water): 29 % of control
- T/C (dose: 4.0 mg/kg/injection, schedule: Q04DX003 (ip), vehicle: other): 19 % of control
- T/C (dose: 4.0 mg/kg/injection, schedule: Q04DX003 (ip), vehicle: water): 13 % of control
- T/C (dose: 8.0 mg/kg/injection, schedule: Q04DX003 (ip), vehicle: other): 1 % of control
- T/C (dose: 16.0 mg/kg/injection, schedule: Q04DX003 (ip), vehicle: other): -56 % of control
- T/C (dose: 16.0 mg/kg/injection, schedule: Q04DX003 (ip), vehicle: water): -100 % of control

SMILES: Cc1cc2cc3cc(C)c(N)cc3nc2cc1N
- T/C (dose: 200.0 mg/kg/injection, schedule: Q04DX003 (sc), vehicle: saline with Tween-80): 161 % of control
- T/C (dose: 400.0 mg/kg/injection, schedule: Q04DX003 (sc), vehicle: saline with Tween-80): 106 % of control
- T/C (dose: 800.0 mg/kg/injection, schedule: Q04DX003 (sc), vehicle: saline with Tween-80): 107 % of control
- T/C (dose: 1600.0 mg/kg/injection, schedule: Q04DX003 (sc), vehicle: saline with Tween-80): 107 % of control
